Data: patent US10522239B2, “Small molecule binding pockets in nucleic acids” (Nymirum, Inc., priority 2012, dated 2019)

Biological target: pre-miR-122 loop
Experiment: NMR titration binding screen against pre-miR-122 loop
Set-up: species or system human
Conditions: NMR titration experiments
Description: The apical loop sequence of human pre-miR 122 RNA sequence was investigated as an example. Two base pairs at the 5′- and 3′-ends of the sequence were modified from the native pre-miR 122 sequence in order to stabilize the 24-mer stem loop construct for NMR studies (5′-[…]-3′) (SEQ ID NO: 2).
Because pre-miR-122 is cleaved near the helix-apical loop interface, the apical loop was targeted to identify binding pockets. […] Given the size and plasticity of the loop, it was hypothesized that the loop could assume different conformations to bind small molecules. To identify small molecule binding pockets, each of the 60 small molecules in Nymirum's small molecule library was screened against the pre-miR-122 loop using NMR titration experiments. Two small molecules, NC1404 (9-aminoacridine) and NC1444 (L-arg-p-nitroanilide), were identified to bind with Kds of 71.7±9.0 μM and 17.6±3.25 μM respectively (FIGS. 12A and 12B). Using the same procedure detailed for A-site, bound-state chemical shifts for NC1404 and NC1444 were measured, used to solve a bound-state pre-miR-122 structure and a binding pocket for each compound was identified (FIGS. 12A and 12B). […]

Kd [µM]	SMILES
17.6 ± 3.25	N=C(N)NCCC[C@H](N)C(=O)Nc1ccc([N+](=O)[O-])cc1 [NC1444, L-arg-p-nitroanilide]
71.7 ± 9	Nc1c2ccccc2nc2ccccc12 [NC1404, 9-aminoacridine]
